# Paper PMC3276251 (Chemical Research in Toxicology, 2011)
# Entries after “also recorded” stand apart in the source; their conditions may differ. Read-outs that look alike come from different tables or passages of the source.
# Legend:
# [1] = Isolated perfused rat kidney; format: in vitro ADME, Sprague-Dawley rats; settings: for XR (excretion ratio = CLR/CLFILT) / CLFILT (filtration clearance) / Cumulative excretion (urinary) / Kidney accumulation / CL renal at 50 µM: 50 µM dose; for XR (excretion ratio = CLR/CLFILT): AUC method; for CLFILT (filtration clearance): GFR × fu; for Cumulative excretion (urinary) / Kidney accumulation: at 80 min post-dose; for Average amount in perfusate per 10-min period / Average amount in urine per 10-min period: 40–50, 50–60, 60–70 and 70–80 min periods, S.D. in parenthesis; for Concentration in perfusate / Concentration in urine: 70–80 min period, perfused with 50 µM AA-I; for Cumulative AA-I excretion in the urine (Xu): eight periods (0–80 min); for Average excretion ratio (XR): mean (S.D.) of 7 collection periods 10–80 min, XR = Cl/(fu × GFR), Cl = Cu × UFR/Cp; for Concentration of AA-I in the urines: last periods; for Concentration of AA-I in the urines / Concentration in the urines: more or less constant; for CL renal at 50 µM: male, Sprague-Dawley, rat, CLR (renal clearance), cumulative urinary excretion / AUC 0–80 min post-dose; for Concentration in the urines: 30–80 min
# [2] = format: in vivo, male Wistar rats; settings: 2 mg AA-I subcutaneously; for Average concentration in 24-hour collected urine: five rats, standard deviation in parentheses; for Amount in the 24 hr urine sample: Wistar rats; for Presence in collected rat urine: 24 hr urine
# albumin in perfusate = albumin in perfusate (Bos taurus, UniProt P02769); experiment: Perfusate binding by ultrafiltration; format: in vitro ADME
# albumin in perfusate, sequence (P02769 25-607): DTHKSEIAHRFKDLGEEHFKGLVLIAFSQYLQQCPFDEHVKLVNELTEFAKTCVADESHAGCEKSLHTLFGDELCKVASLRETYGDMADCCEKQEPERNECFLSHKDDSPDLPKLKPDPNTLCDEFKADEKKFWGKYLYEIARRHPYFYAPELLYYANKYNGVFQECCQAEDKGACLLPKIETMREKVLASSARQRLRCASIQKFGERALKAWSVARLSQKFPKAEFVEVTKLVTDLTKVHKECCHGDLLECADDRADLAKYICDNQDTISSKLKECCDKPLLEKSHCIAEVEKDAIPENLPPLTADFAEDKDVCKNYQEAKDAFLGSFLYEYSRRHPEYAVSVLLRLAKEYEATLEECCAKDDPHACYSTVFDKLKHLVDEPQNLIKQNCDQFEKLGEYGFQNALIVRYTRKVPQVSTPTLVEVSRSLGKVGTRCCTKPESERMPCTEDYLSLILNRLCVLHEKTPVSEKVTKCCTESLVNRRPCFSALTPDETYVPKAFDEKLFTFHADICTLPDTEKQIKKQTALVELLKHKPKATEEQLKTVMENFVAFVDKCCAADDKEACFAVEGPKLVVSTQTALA
Compound,Average amount in perfusate per 10-min period ([1]; Kidney A),Average amount in urine per 10-min period ([1]; Kidney A),Concentration in perfusate ([1]; Kidney A) [µM],Concentration in urine ([1]; Kidney A) [µM],Average excretion ratio (XR) ([1]; Kidney A),Average amount in perfusate per 10-min period ([1]; Kidney B),Average amount in urine per 10-min period ([1]; Kidney B),Concentration in perfusate ([1]; Kidney B) [µM],Concentration in urine ([1]; Kidney B) [µM],Average excretion ratio (XR) ([1]; Kidney B),Average concentration in 24-hour collected urine [2],Amount in the 24 hr urine sample [2],also measured
"COc1cccc2c1cc([N+](=O)[O-])c1c(C(=O)O)cc3c(c12)OCO3 [AA-I, 8-methoxy-6-nitro-phenanthro[3,4-d]-1,3-dioxole-5-carboxylic acid]",1441 (139) nanomoles,0.36 (0.05) nanomoles,16.07,0.48,0.14 (0.05),2447 (298) nanomoles,1.24 (0.32) nanomoles,23.8,0.94,0.24 (0.05),68 (17) µg/Lt,–,"XR (excretion ratio = CLR/CLFILT) ([1]; Kidney A): 0.10; CLFILT (filtration clearance) ([1]; Kidney A): 0.0146 mL/min; Cumulative excretion (urinary) ([1]; Kidney A): 0.063 % dose; Kidney accumulation ([1]; Kidney A): 68 % dose; Cumulative AA-I excretion in the urine (Xu) ([1]; Kidney A): 2.5 µmol; XR (excretion ratio = CLR/CLFILT) ([1]; Kidney B): 0.26; CLFILT (filtration clearance) ([1]; Kidney B): 0.0138 mL/min; Cumulative excretion (urinary) ([1]; Kidney B): 0.162 % dose; Kidney accumulation ([1]; Kidney B): 53 % dose; Cumulative AA-I excretion in the urine (Xu) ([1]; Kidney B): 6.5 µmol; Perfusate concentration of AA-I ([1]; Rat A, at 75 min): ca. 16 µM; Concentration of AA-I in the urines ([1]; Rat A): ~0.5 µM; Perfusate concentration of AA-I ([1]; Rat B, at 75 min): ~23 µM; Concentration of AA-I in the urines ([1]; Rat B): ~1.2 µM; Amounts of AA-I in perfusate and urines ([1]; end of the experiment (80 min)): less than 50 % of the dose; CL renal at 50 µM ([1]; Kidney A): 0.0014 mL/min; CL renal at 50 µM ([1]; Kidney B): 0.003 mL/min; Perfusate concentration of AA-I ([1]; sample taken at 15 min): ca. 28 µM; fraction unbound (albumin in perfusate): 0.0225"
"O=C(O)c1cc2c(c3c1c([N+](=O)[O-])cc1c(O)cccc13)OCO2 [AA-Ia, aristolochic acid Ia]",71.6 (31.0) nanomoles,0.72 (0.11) nanomoles,1.24,0.68,12 (10),38 (10) nanomoles,6.7 (2.6) nanomoles,0.42,4.38,130 (77),7900 (1300) µg/Lt,14.3 % of the dose,"Concentration in the urines ([1]; rat A): ca. 1 µM; Concentration in the urines ([1]; rat B): ~7 µM; fu (fraction unbound to albumin in perfusate) (albumin in perfusate; ultrafiltration, perfusate): 0.0220"
"O=C(O)c1cc2c(c3c1c([N+](=O)[O-])cc1c(OS(=O)(=O)O)cccc13)OCO2 [AA-Ia-O-S, 8-hydroxy-3,4-methylenedioxy-10-nitro-1-phenanthrenecarboxylic acid O-sulfate]",–,0.36 (0.05) nanomoles,–,0.36,–,–,0.96 (0.28) nanomoles,–,0.74,–,–,–,Identification in the perfusate ([1]; IPK): could not be identified; Presence in collected rat urine ([2]; listed as AA-Ia-O-S (5)): could only occasionally be observed by UV detection; also recorded: trace amounts
"COc1cccc2c1cc1c3c(cc4c(c32)OCO4)C(=O)N1 [L-I, aristolactam I]",0.086 (0.062) nanomoles,0.029 (0.013) nanomoles,0.002,0.053,130 (85),0.35 (0.05) nanomoles,0.034 (0.015) nanomoles,0.018,0.055,33 (22),5.4 (3.8) µg/Lt,0.01 % of the dose,fraction unbound (albumin in perfusate): 0.0235
"O=C1Nc2cc3c(OC4OC(C(=O)O)C(O)C(O)C4O)cccc3c3c4c(cc1c23)OCO4 [L-Ia-O-G, 8-hydroxy-3,4-methylenedioxy-10-amino-1-phenanthrene-carboxylic acid lactam O-glucuronide]",–,0.019 (0.007) nanomoles,–,0.031,–,–,0.012 (0.009) nanomoles,0.014,0.021,–,66 (54) µg/Lt,0.09 % of the dose,–
"O=C1Nc2cc3c(OS(=O)(=O)O)cccc3c3c4c(cc1c23)OCO4 [L-Ia-O-S, 8-hydroxy-3,4-methylenedioxy-10-amino-1-phenanthrenecarboxylic acid lactam O-sulfate]",–,–,–,–,–,–,–,–,–,–,53 (24) µg/Lt,0.09 % of the dose,–
"O=C(O)c1cc2c(c3c1ccc1c(O)cccc13)OCO2 [compound 9, 3,4-methylenedioxy-8-hydroxy-1-phenanthrene-1-carboxylic acid]",–,–,–,–,–,–,–,–,–,–,–,–,Presence in collected rat urine [2]: could only occasionally be observed by UV detection
aristolactam Ia [L-Ia],0.97 (0.52) nanomoles,0.10 (0.03) nanomoles,0.010,0.16,62 (50),0.29 (0.09) nanomoles,0.089 (0.071) nanomoles,0.024,–,160 (131),1600 (678) µg/Lt,3.4 % of the dose,–
